Patent US20190030053A1, “COMPOSITION FOR INCREASING EXPRESSION OF PGC-1alpha” (BENEBIOSIS CO., LTD., priority 2016, published 2019)

Assays:
3T3-L1 adipocytes = assay: Oil-Red O staining of intracellular fat in differentiated adipocytes; type: cell-based; settings: differentiated 3T3-L1 adipocytes, 0.01-10 mM, 10 days
Experimental: 3T3-L1 adipocytes were purchased from Korean Cell Line Bank. For the culture and maintenance of 3T3-L1 adipocytes, the cells were subcultured in Dulbecco's modified Eagle's medium (DMEM, Welgene, Korea) supplemented with 10% bovin calf serum (FCS, Welgene, Korea) in a 5% CO2 incubator at 37° C. 3T3-L1 adipocytes were divided into six groups as follows: NT; Normal differentiated cell group (control group), sialyllactose test group; 1, 10, 100, 1000, and 10000 μM test groups treated with sialyllactose (SL, Sigma-Aldrich, USA). For cell differentiation, the cells were dispensed in 6-well plates at a density of 2×10^5 cells per well, and grown to 100% confluency. […]
After differentiation in 6-well plates, 3T3-L1 adipocytes treated with […] or 6’-sialyllactose were washed two times with PBS, and then 2 ml of 10% formalin (Sigma-Aldrich, USA) was added thereto to fix the adipocytes at room temperature for 10 minutes. […] Thereafter, 1 ml of 100% isopropanol (Sigma-Aldrich, USA) was added to effuse stained adipocytes, and then the amount of accumulated fat was measured using absorbance at 500 nm.

high-fat diet mice = assay: Subcutaneous fat changes of high-fat diet mice by subcutaneous injection; type: in vivo, mouse; settings: 0.5 ml of 100 mM, subcutaneous injection day 0 and day 4; observed day 4 and 7
Experimental: 4-Week-old C56BL/6 mice were purchased from Dooyeul Biotech (Korea). Water was freely accessible, and a commercially available pellet feed (Dooyeul Biotech, Korea) was given for one week. A high-fact (60% fat) diet purchased from Research Diets (New Brunswick, U.S.A) was supplied for 28 days to construct fat-accumulated mice.
0.5 ml of 100 mM 3′-siallylactose or 6′-siallylactose dissolved in a phosphate buffer was subcutaneously injected two times (day 0 and day 4) into four to five sites of the dorsal region of the mouse having fat accumulation induced by a high-fat diet. On day 4 and 7, the skin was observed by the naked eye and dermoscopy. A phosphate buffer was used as a control group (CTL).

PGC-1α protein = PGC-1α protein expression in brain and hippocampus of old mouse models (western blot); type: in vivo; settings: ICR mice, oral 0.1 mg/kg/day, 42 weeks
Experimental: In order to investigate the relative protein expression in the brain compared with before SL (3′-SL & 6′-SL) aministration, 4-week-old ICR mice were purchased from Central Lab Animal (Korea). Water was freely accessible, and a commercially available pellet feed (Dooyeul Biotech, Korea) was given for two weeks. […]
Sialyllactose or DW was orally administered daily. […] The dietary intake and body weight change were measured every 5 days. […]
In FIG. 2b, BB1 6′ represents 6′-SL. The “PGC-1α protein expression level” and “GAPDH protein expression level” in each site were quantified, and the relative ratio of the values, (PGC-1α protein expression level)/(GAPDH protein expression level) was numerically expressed for the control group, 3′-SL administration group, and 6′-SL administration group. […]

## CC(=O)N[C@H]1[C@H]([C@H](O)[C@H](O)CO)O[C@@](OC[C@H]2O[C@@H](O[C@H]3[C@H](O)[C@@H](O)[C@H](O)O[C@@H]3CO)[C@H](O)[C@@H](O)[C@H]2O)(C(=O)O)C[C@@H]1O [6′-SL, α-NeuNAc-(2→6)-β-D-Gal-(1→4)-D-Glc]
3T3-L1 adipocytes; listed as 6′-siallylactose
  intracellular fat (Oil Red O): greatly reduced
3T3-L1 adipocytes; listed as 6′-sialyllactose
  intracellular fat (Oil Red O): significantly reduced intracellular fat
high-fat diet mice
  subcutaneous fat (naked eye and dermoscopy): greatly reduced subcutaneous fat
PGC-1α protein
  PGC-1α protein expression level (PGC-1α/GAPDH) vs negative control: much higher
